Source: patent US10865188B2, “Dibenzo azepine compounds and their use in the treatment of otic diseases and disorders” (Pipeline Therapeutics, Inc., priority 2015, dated 2020)

Test system: HES1
Assay: Human neural stem cell assay, Hes1 gene expression (real-time PCR)
Format: cell-based
Conditions: human neural stem cells, 7 point CRC, read-out: hNSC HES1 IC50
Method: Neural stem cells (NSC) were derived from embryonic stem cells using a published protocol (Yuan et al., Mar. 2, 2011, PLoS ONE, 6(3):e17540). Cells were sorted and characterized at passage 3 and were expanded. Cells were then frozen at passage 5. Cells were maintained in NSC media (DMEM/F12, N2 (1×), B27(1×) (Invitrogen), and Pen/Strep (1×) (Life Technologies) with 20 ng/ml bFGF (BD Bioscience/Corning)). On day 1, cells were plated in 96 well plates that have been previously coated with poly-ornithin and laminin, 60,000 cells/well in 100 μl of media. On day 2, spent media was removed, and 180 μl of fresh media was added to the cells. Later that same day (day 2), cells were treated with 20 μl of NSC media containing test compounds (7 point CRC). On day 3, spent media was removed and 140 μl of RLT/bME was added to the cells. RNA was extracted using the QiaCube (Qiagen®, Germantown, Md., USA) using the total RNA extraction+DNAse protocol. RNA was then reverse-transcribed to cDNA using iScript (Bio-Rad, Hercules, Calif., USA). cDNA was then used for real-time PCR analysis using iTaq Sybergreen (BioRad). Expression of Atoh1, Hes5, Hes1, Myosin7a genes was evaluated using CFX96 or CFX384 (Bio-Rad). HPRT1 was used as a reference gene. Analysis was done using Microsoft® Excel® and CBIS (ChemInnovation Software, Inc., San Diego, Calif., USA). […]

IC50: 242 nM
SMILES: C[C@H](OC(=O)NCC(F)(F)C(F)(F)F)C(=O)N[C@@H]1C(=O)Nc2ccccc2-c2ccccc21 [Compound I, (2,2,3,3,3-pentafluoropropyl)-carbamic acid (S)-1-((S)-6-oxo-6,7-dihydro-5H-dibenzo[b,d]azepin-7-ylcarbamoyl) ethyl ester]
